According to patent US8901337B2, “Metal complexes having dual histone deacetylase inhibitory and DNA-binding activity” (Royal College of Surgeons in Ireland, priority 2009, dated 2014):

How the values were obtained:
A2780 cisR cells = assay: Morphological analysis (methylene blue/eosin and DAPI staining), A2780 cisR; assay type: cell-based, human; conditions: IC50 and IC75, 72 hr
Protocol: (§1) Preparations of A2780 P and A2780-cisR cells were exposed to test agents for 72 hr and stained with methylene blue and eosin^19. Drug-treated cells were grown in petri dishes, washed once with PBS, once with PBS:methanol (1:1, v/v), and then fixed in 100% (v/v) methanol for 10 min. Following fixation, cell monolayers were rinsed with anhydrous methanol and stained with methylene blue and eosin for 2 min. Monolayers were then agitated for a further 2 min, destained by rinsing under a gentle stream of water and then finally rinsed with distilled water. Phase contrast microscopy was carried out using a Ceti-phase contrast microscope.
(§2) Drug-treated cells were also stained using a DNA-binding agent commonly used to stain nuclei and visualise nuclear morphology and DNA condensation, namely 4,6-diamidino-2-phenylindole (DAPI). Briefly, a monolayer of drug-treated cells was washed in PBS and fixed with 4% (w/v) paraformaldehyde for 30 min at room temperature. These cells were then permeabilized with 0.2% (v/v) Triton X in PBS and incubated with 1 μg/ml of DAPI for 30 min. Cells were again washed three times with PBS and viewed using a fluorescent microscope with 340/380 nm excitation filter at 250× magnification. Apoptotic cells were confirmed by identification of intensely stained, fragmented nuclei and condensed chromatin.

DNA in A2780 P cells = assay: Pt binding to DNA in cultured cells (ICP-MS), A2780 P; assay type: cell-based, human; conditions: 4 hours of cell treatment; for DNA-bound Pt in A2780 P: 40 μM of Pt complexes
Protocol: Pt DNA binding of Pt complexes was measured in SW480 cells (colon cancer) and CH1 cells (lymphoma) or alternatively A2780 P and A2780 cisR cells (sensitive and resistant to cisplatin respectively). The cells were seeded in 60 mm tissue culture dishes with 10 ml of their respective medium. After overnight incubation the medium was removed and replaced with 10 ml of the respective medium containing a platinum complex giving a final concentration of 43 or 40 μM depending on the experiment. The cells were incubated with a given Pt complex for either 2 or 4 h depending on the experiment. The cells were trypsinised and centrifuged. The supernantant was removed and the cells washed twice with 1×PBS and centrifuged. The pellet was re-suspended in DNA buffer to which Proteinase K (20 mg/mL) and 10% SDS were added. After a gentle shake and incubation at 45° C. for two hours, RNAse (100 mg/mL) was added and the cells were incubated at 37° C. overnight. The volume of supernatant was noted and an equal volume of phenol was added.
The resulting mixture was shook for 10 min, then centrifuged for 10 min at 10° C. The supernatant was transferred into a new centrifuge tube (15 ml) and the volume was noted. To this was added an equal volume of phenol and chloroform/isoamylalcohol (24:1). The resulting mixture was shook for 10 min, then centrifuged for 10 min at 10° C. (3000 RPM). The supernatant was transferred into a new centrifuge tube (15 mL) and the volume was noted. To this was added an equal volume of chloroform. The resulting mixture was shook for 10 min, then centrifuged for 10 min at 10° C. The supernatant was transferred into a new centrifuge tube (15 mL) and the volume was noted. To this was added a volume that is 1/10 of the supernatant of 3 M sodium acetate (Ph 5.2) and three times the volume of cold 100% isopropanol (from freezer). The solution was shook gently until the DNA is precipitated. […] The absorbance of the DNA by was measured by UV spectrophotometry at 260 nm and 280 nm and the concentration of DNA calculated. Platinum bound to DNA was determined by ICP-MS.

A2780 P cells = assay: Morphological analysis (methylene blue/eosin and DAPI staining), A2780 P; assay type: cell-based, human; conditions: IC50 and IC75, 72 hr
Protocol: as §1, §2

[1] = system: SKBR (breast cancer cells); assay: Cellular uptake of Pt (FAAS), SKBR; assay type: cell-based; conditions: 72 hours treatment; for Uptake of Pt complexes into SKBR: 10 μM
Protocol: (§3) Cellular uptake of Pt compounds was measured in SKBR, SW480, A549, A2780P and CH1 cells. The cells were seeded in 60 mm tissue culture dishes with 10 mL of their respective medium and after overnight incubation, the cells were treated with the Pt complexes for 72 h at 10 μM concentration. The cell monolayers at the end of the incubation with the Pt complexes were washed (twice) with ice-cold phosphate buffered saline (PBS), trypsinized and harvested into cold (4° C.) PBS. Cell suspensions were centrifuged and the pellets were stored in PBS at −80° C. until assayed. Afterward, the pellets were digested by high pressure microwave mineralization and Pt content was determined by flameless atomic absorption spectrophotometry (FAAS). The results of cellular Pt uptake were corrected for adsorption effects. All experiments were made in triplicate.^17

[2] = system: SW480 (colon cancer cells); assay: Cellular uptake of Pt (FAAS), SW480; assay type: cell-based; conditions: 10 μM, 72 hours treatment
Protocol: as §3

[3] = system: colon cancer cell line (SW480); assay: MTS in vitro cytotoxicity, SW480; assay type: cell-based; conditions: 72 hours, Table 1, read-out: IC50 values against SW480
Protocol: All cells were kept in a humidified atmosphere with 5% CO2 at 37° C.; cells from confluent monolayers were removed from flasks by trypsin/EDTA solution and their viability determined by the trypan blue exclusion test.
Cell growth was determined by the [3-(4,5-dimethylthiazol-2-yl)-5-(3-carboxymethoxyphenyl)-2-(4-sulfophenyl)-2H-tetrazolium, inner salt, (MTS test, Promega, Southampton, UK), a colorimetric assay based on the ability of the viable cells to reduce a soluble yellow tetrazolium salt to blue formazan. 10,000 ovarian cancer cells or 3,000 fibroblast cells for example were seeded per well onto 96-well plates in 100 μl of the appropriate culture medium. 24 hr after sowing the cells, the media was removed and the cells were treated by adding 100 μl of the compound media solutions at the appropriate concentrations. cis-[Pt(NH3)2(malSAHA−2H)], cisplatin and cis-[Pt(NH3)2(mal)] were prepared freshly in cell culture media. […] The maximum percentage of dmso present in any well was less than 0.1% (v/v). cis-[Pt(NH3)2(malBel—2H)], belinostat and malbelinostat were freshly prepared in dimethyl formamide (DMF) and diluted in culture media prior to the MTS assay. The maximum percentage of DMF present in any well was 0.5% (v/v). A range of concentrations between 1 μM and 100 μM was used.
After 72 hr of treatment, 20 μl of the MTS reagent was added to each well and the plates incubated for 2 hr at 37° C. […] The percentages of surviving cells relative to untreated controls were determined.

CH1 (cancer cells) = assay: Cellular uptake of Pt (FAAS), CH1; assay type: cell-based; conditions: 10 μM, 72 hours treatment
Protocol: as §3

## [NH2][Pt]1([NH2])[O]C(=O)C(Cc2ccc(NS(=O)(=O)c3ccc(/C=C/C(=O)NO)cc3)cc2)C(=O)[O]1 [cis-[Pt(NH3)2(malBel−2H)], cis-[Pt(NH3)2(malBel−2H)].1.5H2O]
A2780 cisR cells
  cellular morphology and integrity of DNA: considerable thinning of the monolayer, attenuation of cells and the nuclei to be intensively stained and fragmented
DNA in A2780 P cells
  DNA-bound Pt in A2780 P: 5,175 · 10^−15 ± 27 moles of Pt/μg of DNA
  DNA binding in A2780 P compared with cisplatin (in words): binds DNA in A2780 P and A2780 cisR cancer cells and to a greater extent than cisplatin
A2780 P cells
  cellular morphology and integrity of DNA: considerable thinning of the monolayer, attenuation of cells and the nuclei to be intensively stained and fragmented

## [NH2][Pt]1([NH2])[O]C(=O)C(Cc2ccc(NC(=O)CCCCCCC(=O)NO)cc2)C(=O)[O]1 [cis-[Pt(NH3)2(malSAHA−2H)], cis-[Pt(NH3)2(malSAHA−2H)].3H2O]
[1]
  Uptake of Pt complexes into SKBR: 6568 ± 312 pmol Pt/2 × 10^6 cell
[1]; SKBR, SW480, A549, A2780 P, CH1
  uptake by cancer cells compared with cisplatin (in words): taken up by cancer cells after 72 hours treatment and to a greater extent than cisplatin
[2]
  Uptake of Pt complexes into SW480: 5422 ± 222 pmol Pt/2 × 10^6 cell
[3]
  IC50: 13.4 ± 3.9 µM
CH1 (cancer cells)
  Uptake of Pt complexes into CH1: 1595 ± 158 pmol Pt/2 × 10^6 cell

## N.N.[Cl][Pt][Cl] [cisplatin, cis-[Pt^II(NH3)2Cl2], reference compound]
[1]
  Uptake of Pt complexes into SKBR: 876.25 ± 70.55 pmol Pt/2 × 10^6 cell
[2]
  Uptake of Pt complexes into SW480: 391.95 ± 51.95 pmol Pt/2 × 10^6 cell
[3]
  IC50: 8 ± 0.3 µM
CH1 (cancer cells)
  Uptake of Pt complexes into CH1: 145.4 ± 21.8 pmol Pt/2 × 10^6 cell
A2780 cisR cells
  cellular morphology and integrity of DNA: considerable thinning of the monolayer, attenuation of cells and the nuclei to be intensively stained and fragmented
DNA in A2780 P cells
  DNA-bound Pt in A2780 P: 200 · 10^−15 ± 60 moles of Pt/μg of DNA
A2780 P cells
  cellular morphology and integrity of DNA: considerable thinning of the monolayer, attenuation of cells and the nuclei to be intensively stained and fragmented
